Measured values from patent US11857601B2, “Pharmaceutical composition for cancer treatment comprising fusion protein including IL-2 protein and CD80 protein and anticancer drug” (GI INNOVATION, INC., priority 2020, dated 2024).

Tests used:
TC1 cells = test: mGI-101, Cisplatin, Pemetrexed and anti-PD-1 antibody, 1st line and maintenance therapy, TC1 tumor model; assay type: in vivo, C57BL/6 mice; conditions: mGI-101 3 mg/kg i.p. QW; compared with anticancer chemotherapeutic agent and anti-PD-1 antibody
Protocol: Mouse-derived lung cancer cell line, TC1, was purchased from ATCC (USA) and used for the test.
TC1 cells were cultured in RPMI1640 medium (Gibco) containing 10% FBS (Gibco) and 1% antibiotic/antifungal agent (Gibco). The cultured cells were harvested using trypsin (Gibco), and then 1×10^6 of TC1 cells were subcutaneously injected into the right flank of C57BL/6 female mice (7-week-old) in order to establish an allotransplanted tumor model.
The mice were randomly assigned based on tumor volume (˜100 mm^3), each group including 13 to 19 mice. The tumor grafts were identified about day 2 after cell inoculation.
The test was divided into the 1st line treatment and the anticancer maintenance therapy. […]
Clinical symptoms such as a disease and a behavioral change were observed once a day during the test period, and deceased animals were identified, and the mice were sacrificed when the tumor size reached a size of 4,000 mm^3. The size of the TC1 solid cancer was measured using a tumor 3D scanner (TM900, Peria, Belgium). […] The anti-tumor efficacy was evaluated as compared with the mouse IgG4 control. […]

MC38 cells = test: mGI-101 and DMXAA in MC38 allotransplanted tumor model; assay type: in vivo, C57BL/6 mice; conditions: day 60 after tumor injection; mGI-101 6 mg/kg i.p. BIW, DMXAA 450 μg I.T.; 5 mice per group
Protocol: In order to establish an allotransplanted tumor model, 5×10^5 of MC38 cells were subcutaneously injected into C57BL/6 mice. The tumor grafts of the mice were identified to be a size of 100-200 mm^3 about day 10 after cell inoculation, and the mice were assigned, each group including 5 mice.
The size of the MC38 solid cancer was measured three times a week during the observation period, and the major axis (maximum length, L) and minor axis (perpendicular width, W) of the tumor were measured using a caliper, and the tumor volume (TV) was calculated by substituting them into the following equation, and once the tumor size was no less than 2 cm, the mice were sacrificed. TV (mm^3)=(W^2×L)/2 [Equation 1]

HCT116 cells = test: Cancer cell killing, GI-101 and Pertuzumab, HCT116 with NK cells; assay type: cell-based, human; conditions: GI-101 0.4-100 nM, Pertuzumab 16.9 nM, 24 hours
From the text: This experiment was to evaluate the effect of killing cancer cells by treating HCT116 cells (human colon cancer cells) with the test substance GI-101 alone or in combination with Pertuzumab substance in an in vitro environment.
HCT116 cells were purchased from the Korea cell line bank and cultured in McCoy's 5A medium (ATCC) containing 10% FBS (Gibco) and 1% antibiotic/antifungal agent (Gibco). For use in cancer cell killing test, the cells were harvested using trypsin (Gibco), and then suspended in McCoy's 5A medium, and then dead cells and debris were removed using Ficoll (GE Healthcare Life Sciences) solution. The cells suspended in McCoy's 5A medium were carefully layered on ficoll solution. […]
In order to identify the effect of killing the cells, a CytoTox Green reagent ([…]™ CytoTox Green, Satorius) that binds to the DNA of cells to be killed was prepared in 1 μl per 1 mL of RPMI1640 medium containing 5% human AB serum (Sigma). The prepared medium was used for dilution of the test substance, and the effect of killing the cells could be quantitatively identified by staining the cells to be killed when the test substance was co-cultured with cancer cell lines and PBMCs. […]

Row | Substance | anticancer effect, anticancer maintenance therapy (TC1 cells) | survival rate (MC38 cells) | effect of killing cancer cells (HCT116 cells)
1 | mGI101: fusion protein: mouse CD80, Ig hinge, Fc domain, linker, IL-2 variant (2M) (R38A, F42A); SEQ ID NO: 15 | as much anticancer effect as the group having received an anticancer chemotherapeutic agent and an anti-PD-1 antibody | 20% | 
2 | GI101: fusion protein: human CD80 fragment, Ig hinge, Fc domain, linker, IL-2 variant (2M) (R38A, F42A); SEQ ID NO: 9 |  |  | excellent effect of killing cancer cells
